Assay results: patent publication US11083723B2, “Use of roluperidone to treat negative symptoms and disorders, increase neuroplasticity, and promote neuroprotection” (Minerva Neurosciences, Inc., priority 2018, dated 2021)
Counter-ions that a name gives are not always drawn.

Tests used:
[1] = tested on: BDNF release by primary hippocampal neurons; assay: BDNF release by primary hippocampal neurons, in situ ELISA; assay type: cell-based, rat; conditions: 3 days incubation
Method: Hippocampal neurons were plated in 96-well Nunc MaxiSorp surface polystyrene flat-bottom immunoplate precoated with poly-D-lysine during 30 min an anti-BDNF monoclonal antibody overnight at 4° C. at a density of 70,000 cells/well. […] At the end of drug treatment, cells were carefully washed with TBST (20 mM Tris-HCl (pH 7.6), 150 mM NaCl, and 0.05% (vol/vol) Tween 20). The plate was then incubated with the polyclonal anti-human BDNF antibody overnight and BDNF quantified.
Experimental Protocol—In Situ ELISA on Primary Hippocampal Neurons Hippocampal Neuron Culture
Newborn rats (Wistar rats, Janvier) were deeply anesthetized by hypothermia and decapitated. […] Cells were mechanically dissociated by 3 passages through a 10 ml pipette. Cells were then centrifuged at 515×g for 10 min at 4° C. […] Viable cells were counted in a Neubauer cytometer using the trypan blue exclusion test.
Hippocampal neurons were plated in 96-well Nunc MaxiSorp surface polystyrene flat-bottom immunoplate precoated with poly-D-lysine during 30 min (Sigma, Ref: P7886, batch: SLBS8705) an anti-BDNF monoclonal antibody overnight at 4° C. at a density of 70000 cells/well.
At the end of drug treatment, cells were carefully washed with TBST (20 mM Tris-HCl (pH 7.6), 150 mM NaCl, and 0.05% (vol/vol) Tween 20). The plate was then incubated with the polyclonal anti-human BDNF antibody overnight. The amount of specifically bound polyclonal antibody was then detected through the use of the anti-IgY-horseradish peroxidase tertiary antibody, which when exposed to the chromogenic substrate (TMB reagent; Promega), changes color in proportion to the amount of BDNF present in the sample. The color intensity was quantified by measuring the absorbance at 450 nm.

[2] = tested on: GDNF release by primary rat astrocytes; assay: GDNF release by primary rat astrocytes, in situ ELISA; assay type: cell-based; conditions: 5 days incubation
Method: Experimental Protocol-In Situ ELISA on Primary Astrocytes Rat Primary Culture of Astrocytes Rat mixed glial cells were cultured as described by McCarthy et al. Primary rat glial cells were prepared from the cortical of newborn Wistar rats (1 day). Briefly, meninges and blood vessels of the mice cortex were removed and placed in ice-cold medium of Leibovitz (L15; PanBiotech, ref P04-27055, batch 4511117) containing 2% Penicillin-Streptomycin (PS; PanBiotech, ref P06-07100, batch 2110917) and 1% of bovine serum albumin (BSA; […] Cells were then submitted to a supplementary incubation of 15 min. at 37° C. in presence of deoxyribonuclease I (0.1 mg/mL Panbiotech, ref: P60-37780100, batch: H140508). Cells were then pelleted (5 min. at 1200 rpm) and trypsinization was stopped by adding DMEM (PanBiotech, Ref P04-03600, Batch 8420517) supplemented with 10% FCS (Fischer, Ref 10270106, batch 41A0940K), 1 mM of Na/pyruvate (PanBiotech, ref: P04-43100, batch 3470914). Cells suspension was mechanically dissociated and filtered through […] diameter nylon meshes (BD Falcon, Ref: 352340). The cells were collected by centrifugation at 1200 rpm/min for 10 min, resuspended in culture medium and then plated in culture flasks (Dutscher, ref: 690175). Cells were seeded at a density of 1.25×10^5 cells/cm^2 and culture in 5% CO2 at 37° C. Medium was changed 3 times per week. At confluency, astrocytes were plated in 96-well Nunc MaxiSorp surface polystyrene flat-bottom immunoplate precoated with poly-D-lysine during 30 min (Sigma, Ref: […], batch: SLBS8705) and an anti-GDNF monoclonal antibody overnight at 4° C. at a density of 30,000 cells/well. […] At the end of drug treatment, cells were carefully washed with TBST (20 mM Tris-HCl (pH 7.6), 150 mM NaCl, and 0.05% (vol/vol) Tween 20). The plate was then incubated with the polyclonal anti-human GDNF antibody overnight. The amount of specifically bound polyclonal antibody, which when exposed to chromogenic substrate (TMB reagent; Promega), changes color in proportion to the amount of GDNF present in the sample. The color intensity was quantified by measuring the absorbance at 450 nm. GDNF standards, ranging in concentration from 0 to 500 pg/mL were added in parallel wells in the same medium than hippocampal neurons.

5-HT2A receptors = 5-HT2A receptors (Homo sapiens, UniProt P28223); assay: Molecular binding profile, 5-HT2A
Chain of 5-HT2A receptors (P28223 whole entry): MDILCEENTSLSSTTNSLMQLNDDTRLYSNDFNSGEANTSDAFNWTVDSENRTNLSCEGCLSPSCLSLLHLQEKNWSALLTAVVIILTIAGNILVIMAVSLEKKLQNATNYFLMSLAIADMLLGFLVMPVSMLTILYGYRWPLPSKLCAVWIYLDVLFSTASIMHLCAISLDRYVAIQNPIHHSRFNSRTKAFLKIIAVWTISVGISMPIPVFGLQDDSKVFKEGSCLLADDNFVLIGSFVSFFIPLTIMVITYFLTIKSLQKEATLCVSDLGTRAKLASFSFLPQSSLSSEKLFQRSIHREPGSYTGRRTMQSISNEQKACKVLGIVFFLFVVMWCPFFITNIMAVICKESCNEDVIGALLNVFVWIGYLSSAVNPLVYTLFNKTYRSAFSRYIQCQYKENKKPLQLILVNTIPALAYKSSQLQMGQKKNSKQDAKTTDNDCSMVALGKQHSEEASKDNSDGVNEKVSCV

sigma1 receptors = sigma1 receptors (Homo sapiens, UniProt Q99720); assay: Molecular binding profile, sigma1
Chain of sigma1 receptors (Q99720 whole entry): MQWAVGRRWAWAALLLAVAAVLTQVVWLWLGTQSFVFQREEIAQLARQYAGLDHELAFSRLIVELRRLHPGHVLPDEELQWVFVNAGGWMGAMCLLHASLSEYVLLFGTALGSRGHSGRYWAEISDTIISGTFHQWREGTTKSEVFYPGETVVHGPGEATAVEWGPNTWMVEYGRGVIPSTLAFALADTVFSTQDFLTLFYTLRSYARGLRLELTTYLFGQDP

dopaminergic receptors = assay: Receptor affinity, dopaminergic; assay type: binding
muscarinic receptors = assay: Receptor affinity, muscarinic; assay type: binding
cholinergic receptors = assay: Receptor affinity, cholinergic; assay type: binding
histaminergic receptors = assay: Receptor affinity, histaminergic; assay type: binding
QT prolongation = conditions: patients treated with Compound (I); related to plasma levels of Compound (I) and metabolite BFB-520; cited from earlier work

O=C(CN1CCC(CN2Cc3ccccc3C2=O)CC1)c1ccc(F)cc1 [Compound (I), 1H-Isoindol-1-one, 2-[[1-[2-(4-Fluorophenyl)-2-oxoethyl]-4-piperidinyl]methyl]-2,3-dihydro-, hydrochloride, hydrate (1:1:2)]
BDNF release hippocampal neurons, % increase of control conditions ([1]; 30 nM): 11.0%
BDNF release hippocampal neurons, % increase of control conditions ([1]; 100 nM): 14.9%
BDNF release hippocampal neurons, % increase of control conditions ([1]; 300 nM): 27.5%
BDNF release hippocampal neurons, % increase of control conditions ([1]; 1 μM): 24.3%
GDNF release astrocytes, % increase of control conditions ([2]; 3 nM): 11.4%
GDNF release astrocytes, % increase of control conditions ([2]; 10 nM): 13.8%
GDNF release astrocytes, % increase of control conditions ([2]; 30 nM): 14.2%
GDNF release astrocytes, % increase of control conditions ([2]; 100 nM): 14.8%
GDNF release astrocytes, % increase of control conditions ([2]; 300 nM): 20.8%
GDNF release astrocytes, % increase of control conditions ([2]; 1 μM): 17.5%
Ki (5-HT2A receptors): 7.5 nM
Ki (sigma1 receptors): 254 nM
affinity for dopaminergic receptors (dopaminergic receptors): no affinity
affinity for muscarinic receptors (muscarinic receptors): no affinity
affinity for cholinergic receptors (cholinergic receptors): no affinity
affinity for histaminergic receptors (histaminergic receptors): no affinity
QT prolongation in patients (QT prolongation): QT prolongation in patients treated with Compound (I) has been observed
